Experimental data reported in EPA's ToxRefDB 2.

Experiments:
[1] = system: rat; conditions: Subchronic oral toxicity in rodents, other, Feed, dose end: 15 week, group: cholinesterase
[2] = system: dog; conditions: Subchronic oral toxicity in nonrodent, beagle, Feed, dose end: 13 week
[3] = system: rat; conditions: Prenatal developmental toxicity study, sprague dawley, Oral, Gavage/Intubation, dose end: 15 GD
[4] = system: rat; conditions: Combined chronic toxicity/carcinogenicity, sprague dawley, Oral, Feed, dose end: 104 week, group: systemic
[5] = system: rat; conditions: Subchronic oral toxicity in rodents, sprague dawley, Feed, dose end: 90 day, group: systemic, systemic / in life observation / body weight / body weight + systemic / in life observation / body weight / body weight gain + systemic / in…
[6] = system: rat; conditions: Multigenerational reproductive toxicity study, sprague dawley, Oral, Feed, dose end: 2 generation
[7] = system: dog; conditions: Chronic toxicity; beagle; Oral; Feed; dose end: 52 week; group: systemic; systemic / pathology microscopic / liver / degeneration + systemic / pathology microscopic / liver / hyperplasia + systemic / pathology …
[8] = system: rat; conditions: Subchronic oral toxicity in rodents, fischer, Feed, dose end: 13 week, group: systemic, systemic / hematology / erythrocyte (rbc) count differential / erythrocyte (rbc) + systemic / hematology / hematocrit (hct) / hematocrit (…
[9] = system: primate; conditions: Subchronic oral toxicity in nonrodent, macaque, Gavage/Intubation, dose end: 28 day, group: systemic, systemic / clinical chemistry / [other] / [other] + systemic / in life observation / clinical signs / emesis + systemic / in life …
[10] = system: rat; conditions: Sub-acute repeat dose toxicity, sprague dawley, Oral, Gavage/Intubation, dose end: 28 day, group: systemic
[11] = system: rat; conditions: Chronic toxicity, sprague dawley, Oral, Gavage/Intubation, dose end: 26 week, group: systemic
[12] = system: rat; conditions: Subchronic oral toxicity in rodents, fischer, Feed, dose end: 90 day
[13] = system: mouse; conditions: Carcinogenicity, cd1, Oral, Feed, dose end: 78 week, group: systemic
[14] = system: dog; conditions: Sub-acute repeat dose toxicity, beagle, Injection, Intravenous, dose end: 1 month, group: systemic
[15] = system: rat; conditions: Fertility (Segment I), sprague dawley, Injection, Intraperitoneal, dose end: 7 GD
[16] = system: rat; conditions: Sub-acute repeat dose toxicity, sprague dawley, Injection, Intraperitoneal, dose end: 30 day, group: systemic
[17] = system: mouse; conditions: Subchronic oral toxicity in rodents, b6c3f1, Feed, dose end: 13 week, group: systemic
[18] = system: rat; conditions: Subchronic oral toxicity in rodents, fischer, Feed, dose end: 13 week, group: systemic
[19] = system: mouse; conditions: Carcinogenicity; b6c3f1; Oral; Feed; dose end: 2 year; group: systemic; systemic / in life observation / body weight / body weight
[20] = system: rat; conditions: Carcinogenicity; fischer; Oral; Feed; dose end: 2 year; group: systemic; systemic / pathology microscopic / skin / keratoacanthoma
[21] = cholinesterase / cholinesterase / cholinesterase / erythrocyte cholinesterase (che)
[22] = cholinesterase / cholinesterase / cholinesterase / erythrocyte cholinesterase (che) + cholinesterase / cholinesterase / cholinesterase / …
[23] = group: cholinesterase, cholinesterase / cholinesterase / cholinesterase / erythrocyte cholinesterase (che) + cholinesterase / cholinesterase / cholinesterase / …
[24] = group: systemic, systemic / in life observation / clinical signs / [other]
[25] = group: developmental, developmental / developmental malformation / bone / unossified
[26] = group: maternal, systemic / in life observation / clinical signs / drooping eyelids (ptosis) + systemic / in life observation / clinical signs / salivation…
[27] = systemic / in life observation / body weight / body weight + systemic / in life observation / body weight / body weight gain
[28] = systemic / in life observation / body weight / body weight + systemic / in life observation / body weight / body weight gain + systemic / …
[29] = group: offspring, systemic / in life observation / body weight / offspring (pup) weight + systemic / in life observation / body weight / offspring (pup) …
[30] = group: parental, systemic / in life observation / body weight / body weight + systemic / in life observation / body weight / body weight gain
[31] = systemic / clinical chemistry / alanine aminotransferase (alt/sgpt) / alanine aminotransferase (alt/sgpt) + systemic / clinical chemistry / …
[32] = systemic / hematology / platelet / platelet + systemic / in life observation / clinical signs / salivation
[33] = systemic / clinical chemistry / alanine aminotransferase (alt/sgpt) / alanine aminotransferase (alt/sgpt) + systemic / in life observation…
[34] = group: cholinesterase, cholinesterase / cholinesterase / cholinesterase / brain cholinesterase (che)
[35] = group: cholinesterase, cholinesterase / cholinesterase / cholinesterase / brain cholinesterase (che) + cholinesterase / cholinesterase / cholinesterase / …
[36] = group: systemic, systemic / hematology / erythrocyte (rbc) count differential / erythrocyte (rbc) + systemic / hematology / hematocrit (hct) / hematocrit (…
[37] = group: systemic, systemic / hematology / mean corpuscular hemoglobin concentration (mchc) / mean corpuscular hemoglobin concentration (mchc)
[38] = systemic / in life observation / body weight / body weight gain + systemic / in life observation / food consumption / food efficiency + …
[39] = systemic / clinical chemistry / [other] / [other] + systemic / hematology / erythrocyte (rbc) count differential / erythrocyte (rbc) + …
[40] = systemic / urinalysis / potassium / potassium + systemic / urinalysis / sodium / sodium
[41] = group: maternal, reproductive / reproductive performance / implantations / implantations + reproductive / reproductive performance / preimplantation loss / …
[42] = group: parental, systemic / in life observation / body weight / body weight gain + systemic / organ weight / ovary / absolute + systemic / organ weight / …
[43] = systemic / clinical chemistry / creatinine / creatinine + systemic / in life observation / food consumption / food consumption + systemic / …
[44] = systemic / pathology microscopic / ovary / follicle count + systemic / in life observation / body weight / body weight
[45] = systemic / in life observation / body weight / body weight
[46] = systemic / in life observation / body weight / body weight + systemic / in life observation / mortality / mortality + systemic / pathology …
[47] = systemic / in life observation / body weight / body weight + systemic / in life observation / food consumption / food consumption + systemic…

For `COP(=S)(OC)Oc1ccc(Sc2ccc(OP(=S)(OC)OC)cc2)cc1` [Temephos], the LEL [1, 21] was 0.9 mg/kg/day, the LOAEL [1, 21] was 0.9 mg/kg/day and the NEL [1, 22] was 0.3 mg/kg/day. For the same compound, the NOAEL [1, 22] was 0.3 mg/kg/day, the LEL [2, 23] was 12.5 mg/kg/day and the LOAEL [2, 23] was 12.5 mg/kg/day. The NEL [2, 23] was 0.46 mg/kg/day, the NOAEL [2, 23] was 0.46 mg/kg/day and the LEL [2, 24] was 12.5 mg/kg/day. The LOAEL [2, 24] was 12.5 mg/kg/day, the NEL [2, 24] was 0.46 mg/kg/day and the NOAEL [2, 24] was 0.46 mg/kg/day.

For `CCNc1nc(NC(C)C)nc(SC)n1` [Ametryn], the LEL [3, 25] was 50 mg/kg/day, the LOAEL [3, 25] was > 250 mg/kg/day and the NEL [3, 25] was 5 mg/kg/day. The NOAEL [3, 25] was ≥ 250 mg/kg/day, the LOAEL ([3]; group: maternal, systemic / in life observation / clinical signs / drooping eyelids (ptosis) + systemic / in life observation / clinical signs / salivation) was 50 mg/kg/day and the LEL [3, 26] was 50 mg/kg/day. It also gave an NEL [3, 26] of 5 mg/kg/day, an NOAEL [3, 26] of 5 mg/kg/day and an LEL [4, 27] of 20.9 mg/kg/day. The LOAEL [4, 27] was 20.9 mg/kg/day, the NEL [4, 28] was 2 mg/kg/day and the NOAEL [4, 28] was 2 mg/kg/day. For the same compound, the LEL [5] was 36.1 mg/kg/day, the LOAEL [5] was 36.1 mg/kg/day and the NEL [5] was 7.4 mg/kg/day. It also gave an NOAEL [5] of 7.4 mg/kg/day, an LEL [6, 29] of 131 mg/kg/day and an LOAEL [6, 29] of 131 mg/kg/day. It also gave an NEL [6, 29] of 13 mg/kg/day, an NOAEL [6, 29] of 13 mg/kg/day and an LEL [6, 30] of 131 mg/kg/day. The LOAEL [6, 30] was 131 mg/kg/day, the NEL [6, 30] was 13 mg/kg/day and the NOAEL [6, 30] was 13 mg/kg/day. The LEL [7] was 70 mg/kg/day, the LOAEL [7] was 70 mg/kg/day and the NEL [7] was 7.2 mg/kg/day. The NOAEL [7] was 7.2 mg/kg/day.

`O=C(O)c1cc(O)c(O)c(O)c1` [Gallic acid] showed an LEL [8] of 300 mg/kg/day, an LOAEL [8] of 300 mg/kg/day and an NEL [8] of 100 mg/kg/day. The NOAEL [8] was 100 mg/kg/day.

For `CCCCN1C(=O)[C@@H]([C@H](O)C2CCCCC2)NC(=O)C12CCN(Cc1ccc(Oc3ccc(C(=O)O)cc3)cc1)CC2.Cl` [Aplaviroc hydrochloride], the LEL [9] was 30 mg/kg/day, the LOAEL [9] was > 1000 mg/kg/day and the NEL [9] was < 30 mg/kg/day. For the same compound, the NOAEL [9] was ≥ 1000 mg/kg/day, the LOAEL [10, 31] was > 1000 mg/kg/day and the NOAEL [10, 31] was ≥ 1000 mg/kg/day. The LEL [10, 32] was 30 mg/kg/day, the NEL [10, 32] was < 30 mg/kg/day and the LOAEL [11, 31] was > 750 mg/kg/day. For the same compound, the NOAEL [11, 31] was ≥ 750 mg/kg/day, the LEL [11, 33] was 100 mg/kg/day and the NEL [11, 33] was < 100 mg/kg/day.

In the case of `COC(=O)Nc1cccc(OC(=O)Nc2cccc(C)c2)c1` [Phenmedipham], the LEL [12, 34] is reported as 3.5 mg/kg/day, the NEL [12, 34] is reported as < 3.5 mg/kg/day and the LOAEL [12, 35] is reported as > 366 mg/kg/day. For the same compound, the NOAEL [12, 35] was ≥ 366 mg/kg/day, the LOAEL [12, 36] was 35.4 mg/kg/day and the NOAEL [12, 36] was 3.5 mg/kg/day. For the same compound, the LEL [12, 37] was 3.5 mg/kg/day, the NEL [12, 37] was < 3.5 mg/kg/day and the LOAEL ([13]; systemic / in life observation / body weight / body weight gain + systemic / in life observation / food consumption / food efficiency) was 1070 mg/kg/day. The NEL [13, 38] was 75 mg/kg/day, the NOAEL [13, 38] was 302 mg/kg/day and the LEL ([13]; systemic / pathology gross / spleen / enlarged + systemic / pathology microscopic / adrenal gland / amyloid deposition + systemic / …) was 302 mg/kg/day.

With `CN(C)c1ccc(O)c2c1C[C@H]1C[C@H]3[C@H](N(C)C)C(=O)C(C(N)=O)=C(O)[C@@]3(O)C(=O)C1=C2O` [Minocycline] the LOAEL [14, 39] was > 40 mg/kg/day, the NOAEL [14, 39] was ≥ 40 mg/kg/day and the LEL [14, 40] was 5 mg/kg/day. The NEL [14, 40] was < 5 mg/kg/day.

With `C1CC2OC2CC1C1CO1` (stereo not given) [4-Vinyl-1-cyclohexene dioxide] the LEL [15, 41] was 80 mg/kg/day, the LOAEL [15, 41] was > 80 mg/kg/day and the NEL [15, 41] was 20 mg/kg/day. For the same compound, the NOAEL [15, 41] was ≥ 80 mg/kg/day, the LEL [15, 42] was 80 mg/kg/day and the LOAEL [15, 42] was > 80 mg/kg/day. The NEL [15, 42] was 20 mg/kg/day, the NOAEL [15, 42] was ≥ 80 mg/kg/day and the LOAEL [16, 43] was > 80 mg/kg/day. For the same compound, the NOAEL [16, 43] was ≥ 80 mg/kg/day, the LEL [16, 44] was 40 mg/kg/day and the NEL [16, 44] was < 40 mg/kg/day.

With `CCNc1cc2oc3cc(=[NH+]CC)c(C)cc-3c(-c3ccccc3C(=O)OCC)c2cc1C.[Cl-]` [Rhodamine 6G] the LEL [17, 45] was 300 mg/kg/day, the NEL [17, 45] was 150 mg/kg/day and the LOAEL [17, 46] was > 1200 mg/kg/day. The NOAEL [17, 46] was ≥ 1200 mg/kg/day, the LOAEL [18, 47] was > 100 mg/kg/day and the NEL [18, 47] was 12.5 mg/kg/day. For the same compound, the NOAEL [18, 47] was ≥ 100 mg/kg/day, the LEL ([18]; systemic / in life observation / body weight / body weight + systemic / pathology microscopic / bone marrow / atrophy) was 25 mg/kg/day and the LEL [19] was 125 mg/kg/day. For the same compound, the LOAEL [19] was 125 mg/kg/day, the NEL [19] was < 125 mg/kg/day and the NOAEL [19] was < 125 mg/kg/day. The LEL [20] was 10 mg/kg/day, the LOAEL [20] was > 10 mg/kg/day and the NEL [20] was 5 mg/kg/day. The NOAEL [20] was ≥ 10 mg/kg/day.
